Test results taken from patent US10167262B2, “Herbicidal substituted 3-arylpyrazoles” (FMC CORPORATION, priority 2014, dated 2019).

How the values were obtained:
Format in all cases: in vivo
[1] = system: waterhemp_RES1, (ALS & Triazine resistant common waterhemp, Amaranthus rudis); test: Test E postemergence greenhouse test, plant response rating 0-100; conditions: scale 0 to 100
Summary of the method: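 Visual ratings, 0 (no effect) to 100 (complete control), made versus controls 14–21 days after postemergence application in the greenhouse. Plants were at 1- to 4-leaf stage (2–18 cm) in peat moss/vermiculite potting medium.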

[2] = system: smartweed (ladysthumb smartweed, Polygonum persicaria); test: Test E pre-/postemergence greenhouse test, plant response rating 0-100; conditions: Postemergence, 500 g ai/ha; scale 0 to 100
[3] = system: large (Lg) crabgrass (Digitaria sanguinalis); test: as above; conditions: Preemergence, scale 0 to 100
[4] = system: green foxtail (Setaria viridis); test: as above; conditions: Preemergence, scale 0 to 100
[5] = system: goosegrass (Eleusine indica); test: as above; conditions: Preemergence, scale 0 to 100
[6] = system: johnsongrass (Sorghum halepense); test: as above; conditions: Preemergence, scale 0 to 100
[7] = system: lambsquarters (Chenopodium album); test: as above; conditions: Preemergence, scale 0 to 100
Summary of the method: (§1)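 Rated visually against controls 14-21 days after treatment on a 0-100 scale (100 = complete control). Pre- and postemergence sprays used a non-phytotoxic solvent mixture with surfactant. Preemergence seeds were in silt loam; postemergence plants were in peat-based medium at the 1- to 4-leaf stage (2-18 cm).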

[8] = system: nightshade (eastern black nightshade, Solanum ptycanthum); test: as above; conditions: Preemergence, scale 0 to 100
Summary of the method: as §1

[9] = system: morningglory (Ipomoea coccinea); test: as above; conditions: Preemergence, scale 0 to 100
[10] = system: yellow nutsedge (Cyperus esculentus); test: as above; conditions: Preemergence, scale 0 to 100

`Cn1cc(C(=O)c2cccs2)c(-c2cc(Cl)cc(Cl)c2)n1` [Compound 17] was tested, and the “Plant response rating, Waterhemp_RES1” value ([1]; 31 g ai/ha) was 70, the “Plant response rating, Waterhemp_RES1” value ([1]; 62 g ai/ha) was 70 and the “Plant response rating, Waterhemp_RES1” value ([1]; 250 g ai/ha) was 85. The “Plant response rating, Waterhemp_RES1” value ([1]; 500 g ai/ha) was 85.

For `CCn1cc(C(=O)c2cccs2)c(-c2cc(Cl)cc(Cl)c2)n1` [Compound 18], the “Plant response rating, Waterhemp_RES1” value ([1]; 31 g ai/ha) was 60, the “Plant response rating, Waterhemp_RES1” value ([1]; 62 g ai/ha) was 70 and the “Plant response rating, Waterhemp_RES1” value ([1]; 125 g ai/ha) was 85. For the same compound, the “Plant response rating, Waterhemp_RES1” value ([1]; 250 g ai/ha) was 95, the “Plant response rating, Waterhemp_RES1” value ([1]; 500 g ai/ha) was 95 and the “Plant response rating, Smartweed” value [2] was 20.

`O=Cn1cc(C(=O)c2ccccc2)c(-c2cc(Cl)cc(Cl)c2)n1` [Compound 28] was tested, and the “Crabgrass, Large plant response rating” value ([3]; 31 g ai/ha) was 0, the “Crabgrass, Large plant response rating” value ([3]; 62 g ai/ha) was 0 and the “Crabgrass, Large plant response rating” value ([3]; 125 g ai/ha) was 0. The “Crabgrass, Large plant response rating” value ([3]; 250 g ai/ha) was 0, the “Crabgrass, Large plant response rating” value ([3]; 500 g ai/ha) was 0 and the “Foxtail, Green plant response rating” value ([4]; 31 g ai/ha) was 0. For the same compound, the “Foxtail, Green plant response rating” value ([4]; 62 g ai/ha) was 0, the “Foxtail, Green plant response rating” value ([4]; 125 g ai/ha) was 0 and the “Foxtail, Green plant response rating” value ([4]; 250 g ai/ha) was 0. For the same compound, the “Foxtail, Green plant response rating” value ([4]; 500 g ai/ha) was 0, the “Goosegrass plant response rating” value ([5]; 31 g ai/ha) was 0 and the “Goosegrass plant response rating” value ([5]; 62 g ai/ha) was 0. For the same compound, the “Goosegrass plant response rating” value ([5]; 125 g ai/ha) was 0, the “Goosegrass plant response rating” value ([5]; 250 g ai/ha) was 0 and the “Goosegrass plant response rating” value ([5]; 500 g ai/ha) was 0. The “Johnsongrass plant response rating” value ([6]; 31 g ai/ha) was 0, the “Johnsongrass plant response rating” value ([6]; 62 g ai/ha) was 0 and the “Johnsongrass plant response rating” value ([6]; 125 g ai/ha) was 0. The “Johnsongrass plant response rating” value ([6]; 250 g ai/ha) was 0, the “Johnsongrass plant response rating” value ([6]; 500 g ai/ha) was 0 and the “Lambsquarters plant response rating” value ([7]; 31 g ai/ha) was 0. For the same compound, the “Lambsquarters plant response rating” value ([7]; 62 g ai/ha) was 95, the “Lambsquarters plant response rating” value ([7]; 125 g ai/ha) was 100 and the “Lambsquarters plant response rating” value ([7]; 250 g ai/ha) was 100. The “Lambsquarters plant response rating” value ([7]; 500 g ai/ha) was 100, the “Nightshade plant response rating” value ([8]; 31 g ai/ha) was 0 and the “Nightshade plant response rating” value ([8]; 62 g ai/ha) was 0. The “Nightshade plant response rating” value ([8]; 125 g ai/ha) was 0, the “Nightshade plant response rating” value ([8]; 250 g ai/ha) was 0 and the “Nightshade plant response rating” value ([8]; 500 g ai/ha) was 0. The “Morningglory plant response rating” value ([9]; 31 g ai/ha) was 0, the “Morningglory plant response rating” value ([9]; 62 g ai/ha) was 0 and the “Morningglory plant response rating” value ([9]; 125 g ai/ha) was 0. The “Morningglory plant response rating” value ([9]; 250 g ai/ha) was 0, the “Morningglory plant response rating” value ([9]; 500 g ai/ha) was 0 and the “Nutsedge, Yellow plant response rating” value ([10]; 31 g ai/ha) was 0. For the same compound, the “Nutsedge, Yellow plant response rating” value ([10]; 62 g ai/ha) was 0, the “Nutsedge, Yellow plant response rating” value ([10]; 125 g ai/ha) was 0 and the “Nutsedge, Yellow plant response rating” value ([10]; 250 g ai/ha) was 0. The “Nutsedge, Yellow plant response rating” value ([10]; 500 g ai/ha) was 0, the “Plant response rating, Waterhemp_RES1” value ([1]; 31 g ai/ha) was 85 and the “Plant response rating, Waterhemp_RES1” value ([1]; 62 g ai/ha) was 85. The “Plant response rating, Waterhemp_RES1” value ([1]; 125 g ai/ha) was 90, the “Plant response rating, Waterhemp_RES1” value ([1]; 250 g ai/ha) was 95 and the “Plant response rating, Waterhemp_RES1” value ([1]; 500 g ai/ha) was 90.

For `CCn1cc(C(=O)c2ccccc2)c(-c2cc(Cl)cc(Cl)c2)n1` [Compound 31, [3-(3,5-dichlorophenyl)-1-ethyl-1H-pyrazol-4-yl]phenylmethanone], the “Crabgrass, Large plant response rating” value ([3]; 62 g ai/ha) was 0, the “Crabgrass, Large plant response rating” value ([3]; 125 g ai/ha) was 0 and the “Crabgrass, Large plant response rating” value ([3]; 250 g ai/ha) was 0. The “Crabgrass, Large plant response rating” value ([3]; 500 g ai/ha) was 0, the “Foxtail, Green plant response rating” value ([4]; 62 g ai/ha) was 0 and the “Foxtail, Green plant response rating” value ([4]; 125 g ai/ha) was 0. The “Foxtail, Green plant response rating” value ([4]; 250 g ai/ha) was 0, the “Foxtail, Green plant response rating” value ([4]; 500 g ai/ha) was 0 and the “Goosegrass plant response rating” value ([5]; 62 g ai/ha) was 0. The “Goosegrass plant response rating” value ([5]; 125 g ai/ha) was 0, the “Goosegrass plant response rating” value ([5]; 250 g ai/ha) was 0 and the “Goosegrass plant response rating” value ([5]; 500 g ai/ha) was 0. The “Johnsongrass plant response rating” value ([6]; 62 g ai/ha) was 0, the “Johnsongrass plant response rating” value ([6]; 125 g ai/ha) was 0 and the “Johnsongrass plant response rating” value ([6]; 250 g ai/ha) was 0. The “Johnsongrass plant response rating” value ([6]; 500 g ai/ha) was 0, the “Lambsquarters plant response rating” value ([7]; 62 g ai/ha) was 0 and the “Lambsquarters plant response rating” value ([7]; 125 g ai/ha) was 100. For the same compound, the “Lambsquarters plant response rating” value ([7]; 250 g ai/ha) was 100, the “Lambsquarters plant response rating” value ([7]; 500 g ai/ha) was 100 and the “Nightshade plant response rating” value ([8]; 62 g ai/ha) was 0. The “Nightshade plant response rating” value ([8]; 125 g ai/ha) was 0, the “Nightshade plant response rating” value ([8]; 250 g ai/ha) was 0 and the “Nightshade plant response rating” value ([8]; 500 g ai/ha) was 50. For the same compound, the “Morningglory plant response rating” value ([9]; 62 g ai/ha) was 0, the “Morningglory plant response rating” value ([9]; 125 g ai/ha) was 0 and the “Morningglory plant response rating” value ([9]; 250 g ai/ha) was 0. The “Morningglory plant response rating” value ([9]; 500 g ai/ha) was 0, the “Nutsedge, Yellow plant response rating” value ([10]; 62 g ai/ha) was 0 and the “Nutsedge, Yellow plant response rating” value ([10]; 125 g ai/ha) was 0. For the same compound, the “Nutsedge, Yellow plant response rating” value ([10]; 250 g ai/ha) was 0 and the “Nutsedge, Yellow plant response rating” value ([10]; 500 g ai/ha) was 0.
